From US12569460B2, “Application of thyroid hormones and thyroid hormone analogues to preparation of drugs for treating sickle-cell disease” (RUIJIN HOSPITAL, SHANGHAI JIAO TONG UNIVERSITY SCHOOL OF …, priority 2020, dated 2026)

Assays:
[1] = tested on: ζ-globin gene (hbae5); assay: qPCR of ζ-globin gene (hbae5) expression in zebrafish embryos; assay type: in vivo; details: 5 μmol/L, 24 hours
Description: (§1) K562 cells were cultured in RPMI 1640 medium supplemented with 10% (v/v) fetal bovine serum; Hemin was dissolved into 0.2 mol/L NaOH solution, and the working concentration for treating K562 cells is 20 μmol/L; Triac, T3 and T4 were dissolved into dimethyl sulfoxide (DMSO), and the working concentration for treating K562 cells and zebrafish embryos is 20 μmol/L and 5 μmol/L, respectively.
After treatment with Triac, T3 and T4 for 24 hours, respectively, zebrafish embryos were collected. TRIzol reagent (Invitrogen) was used to extract total RNA, then a reverse transcription kit (ReverTra Ace, TOYOBO) was used to synthesize cDNA, and finally, a SYBRGreen Realtime PCR Master Mix (TOYOBO) reagent was used to perform quantitative PCR.
(§2) The quantitative PCR reaction system is:
(§3) The quantitative PCR reaction conditions are: • hot start: 95° C., 10 minutes; • denaturation: 95° C., 10 seconds; and • annealing/extension: 60° C., 30 seconds. • 40 circles. Analysis of a […]

[2] = tested on: ζ-globin gene (hbae5); assay: Whole-mount mRNA in situ hybridization (WISH) of ζ-globin gene (hbae5) in zebrafish embryos; assay type: in vivo; details: 5 μmol/L, 24 hours
Description: as §1
After treatment with Triac, T3 and T4 for 24 hours, respectively, zebrafish embryos were fixed by 4% paraformaldehyde. The expression of ζ-globin gene (hbae5) was detected by Whole-mount mRNA in situ hybridization (WISH).

[3] = tested on: ζ-globin gene (HBZ); assay: qPCR of ζ-globin gene (HBZ) expression in hemin-treated K562 cells; assay type: cell-based, human; details: hemin plus Triac 20 μmol/L, 72 hours
Description: as §1
K562 cells were treated with hemin or hemin plus Triac for 72 hours, respectively, centrifugation was performed at 2000 rpm for 5 minutes to collect cells, a TRIzol reagent (Invitrogen) was used to extract total RNA, then a reverse transcription kit (ReverTra Ace, TOYOBO) was used to synthesize cDNA, and finally, a SYBR Green Realtime PCR Master Mix (TOYOBO) reagent was used to perform quantitative PCR.
as §2, §3

Row | Compound | expression of ζ-globin gene (hbae5) up-regulated (qPCR) [1] [folds] | expression of ζ-globin gene (hbae5) by WISH [2] | expression of ζ-globin gene (HBZ) up-regulated (qPCR) [3] [folds]
1 | N[C@@H](Cc1cc(I)c(Oc2ccc(O)c(I)c2)c(I)c1)C(=O)O [T3, 3,3′,5-Triiodo-L-thyronine] | 31 | significantly induce the expression | 
2 | N[C@@H](Cc1cc(I)c(Oc2cc(I)c(O)c(I)c2)c(I)c1)C(=O)O [T4, 3,3′,5,5′-tetraiodothyronine] | 41 | significantly induce the expression | 
3 | O=C(O)Cc1cc(I)c(Oc2ccc(O)c(I)c2)c(I)c1 [Triac, 2-[4-(4-Hydroxy-3-iodophenoxy)-3,5-diiodophenyl] acetic acid] | 76 | significantly induce the expression | 50.9
